Test system: murine dermal fibroblasts
Test: RNA-Seq of newborn murine dermal fibroblasts
Type: cell-based, mouse
Conditions: 10^−7 M, 24 h; for number of genes solely downregulated / number of genes solely upregulated: FC ≥ 2
Protocol: All animal studies followed guidelines outlined by the NIH Guide for the Care and Use of Laboratory Animals and protocols were approved by the Institutional Animal Care and Use Committee at the NIEHS or the UAB. […] Skin samples from newborn C57BL/6 mice were collected at the NIEHS. Dermal fibroblasts were isolated from the skin of newborn mice, 1–2 day old. Briefly, we followed the protocols described previously. The skin was washed in PBS, cut into smaller pieces and incubated in 2.4 U/ml of dispase II (Roche) overnight at 4 °C. The dermis was separated from the epidermis and incubated in 0.1% collagenase (Roche) at 4 °C overnight. […] Single cell suspension was prepared by pipetting and draining through a cell strainer. After centrifugation, cell pellets were suspended in DMEM medium containing 10% charcoal-stripped fetal bovine serum (cFBS), mouse fibroblasts growth factor (FGF) and 1% antibiotic, and inoculated into tissue culture dishes (Midwest Scientific, TPP). Cells, in early passages, from different mice were pooled together to provide representative samples for experiments. Fibroblasts were cultured in Petri dishes (10 cm in diameter) in DMEM and 10% cFBS and triplicate semi-confluent cultures were treated as described.
Triplicate cultures of murine fibroblasts were used for RNA isolation (RNAeasy Micro kit, Qiagen), the RNA samples were combined for each condition and at least 200 ng of RNA for each sample was used to create libraries for RNA sequencing by BGI Americas Corporation Service (Cambridge, MA)[67]. Quality of RNA and its concentration were determined using Agilent 2100.
The raw sequence FASTQ files were aligned to Gencode’s GRCm38 p4 Release M11 genome using STAR version 2.5.4b (parameters used: –outReadsUnmapped Fastx; –outSAMtype BAM SortedByCoordinate; –outSAMattributes All; –outFilterIntronMotifs RemoveNoncanonicalUnannotated)[69]. The abundance of transcripts was calculated from the alignments using Cufflinks version 2.2.1 (parameters used: –G; –L; –library-type fr-firststrand). Samples were merged using default parameters with Cuffmerge[70],[71]. The differential expression was calculated using Cuffdiff’s default parameters. The raw data have been deposited at the NCBI GEO (GSE145818).

Compound: C=C1C(=CC=C2CCCC3(C)C2CCC3C(C)(O)CC(O)CC(C)C)CC(O)CC1O (stereo not shown) [1,20,23(OH)3D3]
- Adh7 expression level: 1.313
- Adh7 log2(fold_change) vs control: 2.36
- Aqp11 expression level: 0.9394
- Aqp11 log2(fold_change) vs control: 2.077
- Arid3b expression level: 0.6082
- Arid3b log2(fold_change) vs control: -2.478
- Bicd1 expression level: 0.7058
- Bicd1 log2(fold_change) vs control: -1.592
- Btc expression level: 1.117
- Btc log2(fold_change) vs control: 2.211
- Car9 expression level: 2.818
- Car9 log2(fold_change) vs control: -1.732
- Cbs expression level: 0.2989
- Cbs log2(fold_change) vs control: -2.697
- Ccl4 expression level: 0.3377
- Ccl4 log2(fold_change) vs control: -1.322
- Cd68 expression level: 3.541
- Cd68 log2(fold_change) vs control: 1.639
- Cd200 expression level: 0.5777
- Cd200 log2(fold_change) vs control: -1.286
- Cherp expression level: 32.7784
- Cherp log2(fold_change) vs control: -2.489
- Clec2g expression level: 0
- Clec2g log2(fold_change) vs control: -inf
- Cnnm4 expression level: 4.2236
- Cnnm4 log2(fold_change) vs control: -3.566
- Cox15 expression level: 15.6597
- Cox15 log2(fold_change) vs control: 1.429
- Cpa2 expression level: 0.3128
- Cpa2 log2(fold_change) vs control: -2.322
- Ctrl expression level: 0.34
- Ctrl log2(fold_change) vs control: -1.578
- Dcun1d1 expression level: 4.162
- Dcun1d1 log2(fold_change) vs control: -1.661
- Defb42 expression level: 0.2203
- Defb42 log2(fold_change) vs control: -2.046
- Dtx1 expression level: 0.142
- Dtx1 log2(fold_change) vs control: -3.544
- Ehf expression level: 0.2985
- Ehf log2(fold_change) vs control: -1.4739
- Ercc2 expression level: 13.9366
- Ercc2 log2(fold_change) vs control: -3.6
- Erh expression level: 2.618
- Erh log2(fold_change) vs control: -1.258
- Fmnl1 expression level: 0.2192
- Fmnl1 log2(fold_change) vs control: -2.084
- Gys2 expression level: 0
- Gys2 log2(fold_change) vs control: -inf
- Hist1h2ab expression level: 1.43
- Hist1h2ab log2(fold_change) vs control: 2.322
- Hist1h2bg expression level: 0
- Hist1h2bg log2(fold_change) vs control: -inf
- Hist1h2bh expression level: 0
- Hist1h2bh log2(fold_change) vs control: -inf
- Hist1h4c expression level: 0.4025
- Hist1h4c log2(fold_change) vs control: -1
- Isl1 expression level: 0.3246
- Isl1 log2(fold_change) vs control: -1.301
- Krt19 expression level: 10.3867
- Krt19 log2(fold_change) vs control: 1.043
- Larp1b expression level: 6.304
- Lhx6 expression level: 2.879
- Lhx6 log2(fold_change) vs control: -2.012
- Lsm5 expression level: 1.269
- Lsm5 log2(fold_change) vs control: -1.065
- M1ap expression level: 2.14
- M1ap log2(fold_change) vs control: 1.796
- Med9os expression level: 0.7829
- Med9os log2(fold_change) vs control: -1.4
- Nckipsd expression level: 23.2533
- Nckipsd log2(fold_change) vs control: 2.486
- Nr3c2 expression level: 0.0668
- Nr3c2 log2(fold_change) vs control: -4.037
- Nr6a1 expression level: 0.2068
- Nr6a1 log2(fold_change) vs control: -3.152
- Ntrk3 expression level: 0.4025
- Ntrk3 log2(fold_change) vs control: -2.2019
- Parvg expression level: 0.1595
- Parvg log2(fold_change) vs control: -3.209
- Pde4dip expression level: 24.1833
- Pde4dip log2(fold_change) vs control: -7.338
- Psd4 expression level: 0.1018
- Psd4 log2(fold_change) vs control: -3.94
- Ptpa expression level: 214.561
- Ptpa log2(fold_change) vs control: 1.701
- Ptpn6 expression level: 3.903
- Ptpn6 log2(fold_change) vs control: -1.613
- Rnu3a expression level: 0
- Rnu3a log2(fold_change) vs control: -inf
- Rpph1 expression level: 0.6553
- Rpph1 log2(fold_change) vs control: -1
- Rsad1 expression level: 1.419
- Rsad1 log2(fold_change) vs control: -1.14
- Saa1 expression level: 0.1901
- Saa1 log2(fold_change) vs control: -2.322
- Samd12 expression level: 0.2728
- Samd12 log2(fold_change) vs control: -3.717
- Scn8a expression level: 0.1998
- Scn8a log2(fold_change) vs control: -2
- Sgca expression level: 0.5689
- Sgca log2(fold_change) vs control: -1.112
- Slc15a4 expression level: 13.3996
- Slc15a4 log2(fold_change) vs control: -2.086
- Slc16a5 expression level: 0.07215
- Slc16a5 log2(fold_change) vs control: -3.671
- Snhg9 expression level: 3.722
- Snhg9 log2(fold_change) vs control: -2.322
- St7 expression level: 24.6198
- St7 log2(fold_change) vs control: -1.48
- Stmn1 expression level: 5.272
- Stmn1 log2(fold_change) vs control: 1.77
- Susd1 expression level: 2.296
- Susd1 log2(fold_change) vs control: 1.732
- Syt8 expression level: 0.5148
- Syt8 log2(fold_change) vs control: -2.627
- Syt12 expression level: 0.9828
- Syt12 log2(fold_change) vs control: -2.055
- Tldc2 expression level: 0
- Tldc2 log2(fold_change) vs control: -inf
- Tnnc2 expression level: 0.3105
- Tnnc2 log2(fold_change) vs control: -1.361
- Unc5c expression level: 0.4569
- Unc5c log2(fold_change) vs control: -1.248
- Wdr17 expression level: 0.2366
- Wdr17 log2(fold_change) vs control: -3.241
- Zbtb18 expression level: 4.229
- Zbtb18 log2(fold_change) vs control: -3.388
- Zfp618 expression level: 1.3488
- Zfp618 log2(fold_change) vs control: -1.817
- number of genes downregulated, FC ≥ 2: 520
- number of genes upregulated, FC ≥ 2: 531
- number of genes solely downregulated: 113 (10.7%)
- number of genes solely upregulated: 256 (17%)

Compound: C=C1/C(=C\C=C2/CCC[C@]3(C)[C@@H]([C@H](C)CCCC(C)(C)O)CC[C@@H]23)C[C@@H](O)C[C@@H]1O [1,25(OH)2D3, reference compound]
- Adh7 expression level: 1.042
- Aqp11 expression level: 0.9562
- Arid3b expression level: 1.268
- Bicd1 expression level: 0.7304
- Btc expression level: 0.9514
- Car9 expression level: 3.341
- Cbs expression level: 0.4189
- Ccl4 expression level: 0
- Cd68 expression level: 5.274
- Cd200 expression level: 0.3998
- Cherp expression level: 35.1454
- Clec2g expression level: 0
- Cnnm4 expression level: 11.9457
- Cox15 expression level: 15.3542
- Cpa2 expression level: 0.3127
- Ctrl expression level: 0.3422
- Dcun1d1 expression level: 6.457
- Defb42 expression level: 0.2302
- Dtx1 expression level: 0.2518
- Ehf expression level: 0.2831
- Ercc2 expression level: 13.8618
- Erh expression level: 2.728
- Fmnl1 expression level: 0.04415
- Gys2 expression level: 0
- Hist1h2ab expression level: 1.144
- Hist1h2bg expression level: 0.5636
- Hist1h2bh expression level: 0
- Hist1h4c expression level: 0
- Isl1 expression level: 0.2249
- Krt19 expression level: 14.9744
- Larp1b expression level: 2.787
- Lhx6 expression level: 3.883
- Lsm5 expression level: 0.9896
- M1ap expression level: 1.719
- Med9os expression level: 0.7826
- Nckipsd expression level: 15.4716
- Nr3c2 expression level: 0.1558
- Nr6a1 expression level: 0.3582
- Ntrk3 expression level: 0
- Parvg expression level: 0.1595
- Pde4dip expression level: 20.1604
- Psd4 expression level: 0.7259
- Ptpa expression level: 235.847
- Ptpn6 expression level: 2.532
- Rnu3a expression level: 0
- Rpph1 expression level: 0.655
- Rsad1 expression level: 1.447
- Saa1 expression level: 0.19
- Samd12 expression level: 0.7427
- Scn8a expression level: 0.3603
- Sgca expression level: 0.3791
- Slc15a4 expression level: 20.8062
- Slc16a5 expression level: 0.1731
- Snhg9 expression level: 3.721
- St7 expression level: 31.903
- Stmn1 expression level: 3.691
- Susd1 expression level: 2.151
- Syt8 expression level: 1.517
- Syt12 expression level: 0.9903
- Tldc2 expression level: 0.381
- Tnnc2 expression level: 0
- Unc5c expression level: 0.3264
- Wdr17 expression level: 0.7213
- Zbtb18 expression level: 5.623
- Zfp618 expression level: 1.668
- number of genes downregulated, FC ≥ 2: 566
- number of genes upregulated, FC ≥ 2: 601
- number of genes solely downregulated: 159 (15%)
- number of genes solely upregulated: 322 (21.4%)

Source: paper PMC8044163, “Vitamin D and lumisterol derivatives can act on liver X receptors (LXRs)” (Scientific Reports, 2021)
